Values joined by “and” are separate entries in the source; they are usually repeats but may differ in a detail not shown here. Equal entries are not always repeated. Toxic doses and inconclusive results are not listed.
System: L1210 leukemia ip in BDF1 mice, survival T/C
Experiment: NCI In Vivo Anticancer Drug Screen. Data for tumor model L1210 Leukemia (intraperitoneal) in B6D2F1 (BDF1) mice
Conditions: endpoint: mean survival time, higher = longer survival
Summary of the method: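 Each compound was tested against a transplantable tumor grown in mice. The endpoint was survival, with treated animals benchmarked against vehicle controls as a simple ratio.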

[1] = dose: 100.0 mg/kg/injection, schedule: Q01DX009 (ip), vehicle: Klucel (hydroxypropylcellulose) (HPC)
[2] = dose: 100.0 mg/kg/injection, schedule: Q04DX003 (ip), vehicle: Klucel (hydroxypropylcellulose) (HPC)
[3] = dose: 200.0 mg/kg/injection, schedule: Q01DX009 (ip), vehicle: Klucel (hydroxypropylcellulose) (HPC)
[4] = dose: 200.0 mg/kg/injection, schedule: Q04DX003 (ip), vehicle: Klucel (hydroxypropylcellulose) (HPC)
[5] = dose: 400.0 mg/kg/injection, schedule: Q01DX009 (ip), vehicle: Klucel (hydroxypropylcellulose) (HPC)
[6] = dose: 400.0 mg/kg/injection, schedule: Q04DX003 (ip), vehicle: Klucel (hydroxypropylcellulose) (HPC)
[7] = dose: 100.0 mg/kg/injection, schedule: Q04DX003 (ip), vehicle: saline with Tween-80
[8] = dose: 25.0 mg/kg/injection, schedule: Q04DX003 (ip), vehicle: saline with Tween-80

## CCOP(=O)(OCC)c1cccc(Cl)c1
dose: 75.0 mg/kg/injection, schedule: Q01DX001 (ip), vehicle: saline
  T/C: 101 % of control

## CC1(C)N=C(N)N=C(N)N1c1ccc(CCCCc2ccccc2Cl)cc1
dose: 12.5 mg/kg/injection, schedule: Q01DX001 (ip), vehicle: Klucel (hydroxypropylcellulose) (HPC)
  T/C: 95 % of control
dose: 25.0 mg/kg/injection, schedule: Q01DX001 (ip), vehicle: Klucel (hydroxypropylcellulose) (HPC)
  T/C: 98 % of control

## Cc1ccc(S(=O)(=O)NCCCCCC(=O)O)cc1
[1]
  T/C: 101 % of control
[2]
  T/C: 98 % of control
[3]
  T/C: 101 % of control
[4]
  T/C: 94 % of control
[5]
  T/C: 100 % of control
[6]
  T/C: 96 % of control

## CCc1ccc(C(=O)C2CC2)cc1
dose: 100.0 mg/kg/injection, schedule: Q01DX009 (ip), vehicle: saline with Tween-80
  T/C: 102 % of control
[7]
  T/C: 93 % of control
dose: 200.0 mg/kg/injection, schedule: Q01DX009 (ip), vehicle: saline with Tween-80
  T/C: 104 % of control
dose: 200.0 mg/kg/injection, schedule: Q04DX003 (ip), vehicle: saline with Tween-80
  T/C: 96 % of control
dose: 400.0 mg/kg/injection, schedule: Q01DX009 (ip), vehicle: saline with Tween-80
  T/C: 110 % of control
dose: 400.0 mg/kg/injection, schedule: Q04DX003 (ip), vehicle: saline with Tween-80
  T/C: 96 % of control

## CCCCCCCCCCCCCCCC(C)(C)O
[1]
  T/C: 102 % of control
[2]
  T/C: 96 % of control
[3]
  T/C: 100 % of control
[4]
  T/C: 96 % of control
[5]
  T/C: 102 % of control
[6]
  T/C: 101 % of control

## COc1ccc(C(=O)OCc2ccccc2CN2CCCCC2)cc1
dose: 100.0 mg/kg/injection, schedule: Q04DX002 (ip), vehicle: Klucel (hydroxypropylcellulose) (HPC)
  T/C: 102 % of control
dose: 200.0 mg/kg/injection, schedule: Q04DX002 (ip), vehicle: Klucel (hydroxypropylcellulose) (HPC)
  T/C: 102 % of control
dose: 400.0 mg/kg/injection, schedule: Q04DX002 (ip), vehicle: Klucel (hydroxypropylcellulose) (HPC)
  T/C: 86 % of control

## CCCCN(C)CC#N
dose: 6.25 mg/kg/injection, schedule: Q01DX009 (ip), vehicle: saline with Tween-80
  T/C: 102 % of control
dose: 12.5 mg/kg/injection, schedule: Q01DX009 (ip), vehicle: saline with Tween-80
  T/C: 96 % of control
dose: 12.5 mg/kg/injection, schedule: Q04DX003 (ip), vehicle: saline with Tween-80
  T/C: 94 % of control
dose: 25.0 mg/kg/injection, schedule: Q01DX009 (ip), vehicle: saline with Tween-80
  T/C: 104 % of control
[8]
  T/C: 94 % of control

## S=c1[nH]n2c(=S)[nH]nc2s1
[2]
  T/C: 101 % of control
[4]
  T/C: 103 % of control
[6]
  T/C: 93 % of control

## CN(C)CCN1c2ccccc2Sc2ccccc21
dose: 12.5 mg/kg/injection, schedule: Q04DX003 (ip), vehicle: saline
  T/C: 97 % of control
dose: 25.0 mg/kg/injection, schedule: Q04DX003 (ip), vehicle: saline
  T/C: 108 % of control
dose: 50.0 mg/kg/injection, schedule: Q04DX003 (ip), vehicle: saline
  T/C: 103 % of control
dose: 100.0 mg/kg/injection, schedule: Q04DX003 (ip), vehicle: saline
  T/C: 101 % of control

## c1ccc(COC2CN3CCC2CC3)cc1 (centres undefined)
[8]
  T/C: 91 % of control
dose: 50.0 mg/kg/injection, schedule: Q04DX003 (ip), vehicle: saline with Tween-80
  T/C: 95 % of control
[7]
  T/C: 90 % of control and 91 % of control

## CCCCOP(=O)(OCCCC)C(=O)N(CC)CC
[2]
  T/C: 112 % of control
[4]
  T/C: 101 % of control
[6]
  T/C: 93 % of control

## CC1CN=C(c2ccc(NC(=O)C3CCC(C(=O)Nc4ccc(C5=NCC(C)N5)cc4)CC3)cc2)N1 (centres undefined)
dose: 31.0 mg/kg/injection, schedule: Q01DX015 (ip), vehicle: methylcellulose (MC)
  T/C: 159 % of control
dose: 62.0 mg/kg/injection, schedule: Q01DX015 (ip), vehicle: methylcellulose (MC)
  T/C: 113 % of control

From PubChem BioAssay AID248 (DTP/NCI, 2004)
